Assay results taken from patent EP2711006A1, “Product Comprising a Nicotine-Containing Material and an Anti-Cancer Agent” (Rigas, Basil, priority 2012, dated 2014).
Where two headings read alike, the source gives them in different places.

How the values were obtained:
[1] = system: GFP-A549 human lung cancer cells
Method: Experimental animals were held in nose-only air-tight tubes for designated time intervals.
Inhalation treatment was resumed 2 days post-surgery and continued for 6 weeks when mice were euthanized, and blood and lung tissues were collected. Luminosity of the GFP-A549 tumors was measured and the lungs were weighed.

[2] = for Total drug levels (PS V plus its metabolites): plasma
[3] = set-up: unit not given beside the values; conditions: mouse, in vivo, inhaled or intranasal
lung cancer = conditions: curcumin as a single agent, pre-clinical models of lung cancer; cited from earlier work

CCOP(=O)(OCC)OCCCCOC(=O)CC1=C(C)/C(=C/c2ccc([S+](C)[O-])cc2)c2ccc(F)cc21 (stereo not drawn) [PS V, phospho-sulindac]
tumor size by luminosity ([1]; at sacrifice, Mean±SEM, control = 19.85±4.33, p < 0.001): 5.05±2.97 | tumor size by lung weight ([1]; at sacrifice, Mean±SEM, control = 385.7±85.2 mg, p < 0.001): 204.4 ± 39.4 mg | death rate ([1]; end of the study, aerosol of 50 mg/mL PS V for 8 min, control group 40 %, p < 0.03): less than 10% | level of intact PS V in the lungs ([2]; inhalational, 6.5 mg/kg body weight): > 20 nmol/g | level of intact PS V in the lungs ([2]; oral administration, 150 mg/kg body weight): < 2 nmol/g | Total drug levels (PS V plus its metabolites) ([2]; after inhalation treatment, 6.5 mg/kg): 17 µM | Total drug levels (PS V plus its metabolites) ([2]; after oral administration, 150 mg/kg): 348 µM

CC1=C(CC(=O)O)c2cc(F)ccc2/C1=C\c1ccc([S+](C)[O-])cc1 (stereo not drawn) [Sulindac, sulindac]
AUC [3]: 30.1

COc1cc(/C=C/C(=O)CC(=O)/C=C/c2ccc(O)c(OC)c2)ccc1O [curcumin]
efficacy (lung cancer): < 30%
